How the values were obtained:
[1] = system: mouse hyperglycemia induced by adrenalin; experiment: Effect of Sequoyitol on mouse hyperglycemia induced by adrenalin; type: in vivo, Kunming mice; conditions: for hepatic glycogen level increased compared to the control group: adrenalin model; for blood-sugar level decreased compared to the control group: 30 minutes after adrenalin 0.2 mg/kg i.p.
Description: 1. Experimental Methods^[3] • 72 Mice were randomly divided into 6 groups, wherein 4 groups were orally administrated with 25, 50 and 100 mg/kg of Sequoyitol and 10 mg/kg of Glibenclamide according to 0,1 ml/10 g of body weight, respectively, and the normal group and modeling group were administrated with the same volum of distilled water. These administrations were conducted for continuous 7 days. The normal group was administrated with the same volum of physiological saline by injection, while other groups were administrated with 0.2 mg/kg of adrenalin by intra-abdominal injection. The blood-sugar levels were detected by glucose oxidase method after 30 minutes of administration. The livers of the mice were collected, and hepatic glycogen levels were detected by anthrone method.

[2] = system: mouse hyperglycemia induced by alloxan; experiment: Effects of Sequoyitol on mouse hyperglycemia induced by alloxan; type: in vivo, Kunming mice
Description: 1. Experimental Methods^[1,2] • Among 60 mice, 10 mice were randomly selected as normal group, and the residual mice were administrated with 65 mg/kg alloxan by caudal vein injection, modeled according to the method of documents, and divided into 5 groups according to blood-sugar values, wherein 4 groups were perorally administrated with 25, 50 and 100 mg/kg of Sequoyitol and 75 mg/kg of phenformine according to 0.1 ml/10 g of body weight, respectively, and the normal group and modeling group were administrated with the same volum of distilled water, separately. These administrations were conducted for continuous 7 days. The blood-sugar levels were detected by glucose oxidase method. The pancreatic glands of the mice were soaked in 10% formalin, embedded with paraffin, sliced, and dyed with HE dye.

[3] = system: rats; experiment: General pharmacology in rats; conditions: rat, in vivo
Description: • 1. Guidelines for Studying New Drugs (Pharmacy, Pharmacology, Toxicology), Bureau of Drug Administration, the Ministry of Health of the People's Republic of China • 2. Chen Q I, Methodology for Studying Pharmacology of Chinese Medicine, People' Medical Publishing House, 1st Edition, 1993, 118-119 III. Studies on General Pharmacology • The effects of Sequoyitol on general physical signs and spontaneous movement of normal mice, on Pentobarbital hours of sleep of mice, and on respiratory movement, blood pressure, cardiac rhythm and electrocardiogram of rats were observed.

[4] = system: mouse hyperglycemia induced by Streptozocin; experiment: Effect of Sequoyitol on mouse hyperglycemia induced by Streptozocin; type: in vivo, Kunming mice
Description: 1. Experimental Methods^[7,8] • Among 66 mice, 10 mice were randomly selected as normal group, and the residual mice were administrated with 160 mg/kg Streptozocin by vena caudalis injection, modeled according to methods of documents, and divided into 5 groups according to blood-sugar level, wherein 4 groups were perorally administrated with 25, 50 and 100 mg/kg of Sequoyitol and 75 mg/kg of phenformine according to 0.1 ml/10 g of body weight, respectively, and the normal group and modeling group were administrated with the same volum of distilled water. These administrations were conducted for continuous 18 days. The blood-sugar levels of the mice were separately measured at 6th and 12th day after the administration. At the 18th day, blood was collected by excising eyeballs, serum was separated, and the blood sugar level, insulin level, cholesterol content, triglyceride content, malonaldehyde content, and hepatocuprein activity of serum were measured; liver tissue was homogenated, and the malonaldehyde content and hepatocuprein activity of liver tissue were measured; and pancreatic gland was soaked in 10% formalin, embedded with paraffin, sliced, and dyed with HE.

[5] = Sequoyitol 25 mg/kg oral 7 days
[6] = Sequoyitol 100 mg/kg oral 7 days
[7] = 25 and 50 mg/kg Sequoyitol groups, p.o. 18 days
[8] = Sequoyitol 100 mg/kg p.o. 18 days
[9] = Sequoyitol groups (25, 50, 100 mg/kg p.o. 18 days)

COC1C(O)C(O)C(O)C(O)C1O (stereo not drawn) [Sequoyitol, 5-O-methyl-myo-inositol]
hepatic glycogen level increased compared to the control group ([1]; Sequoyitol 20 mg/kg (so in the source) oral 7 days): 1.24 mg/g of liver tissue
blood-sugar level decreased compared to the control group [1, 5]: 32.2 mg/dL
hepatic glycogen level increased compared to the control group [1, 5]: 1.76 mg/g of liver tissue
blood-sugar level decreased compared to the control group ([1]; Sequoyitol 50 mg/kg oral 7 days): 35.5 mg/dL
blood-sugar level decreased compared to the control group [1, 6]: 39.9 mg/dL
hepatic glycogen level increased compared to the control group [1, 6]: 1.24 mg/g of liver tissue
alloxan-induced hyperglycemia compared to the control group ([2]; Sequoyitol 25 mg/kg p.o. 7 days): alleviated
blood-sugar level decreased compared to the control group ([2]; Sequoyitol 50 mg/kg p.o. 7 days): 195.2 mg/dL
blood-sugar level decreased compared to the control group ([2]; Sequoyitol 100 mg/kg p.o. 7 days): 306.8 mg/dL
number of pancreatic islands and number of islet cells (histopathologic examination) compared to the model group ([2]; Sequoyitol groups (25, 50, 100 mg/kg p.o. 7 days)): increased significantly
effect on blood pressure of rats [3]: did not significantly affect
effect on cardiac rhythm of rats [3]: did not significantly affect
effect on electrocardiogram of rats [3]: did not significantly affect
effect on respiratory movement of rats [3]: did not significantly affect
content of cholesterol in serum compared to the control group [4, 7]: decreased
content of malonaldehyde in liver tissue compared to the control group [4, 7]: significantly decreased
content of triglyceride in serum compared to the control group [4, 7]: significantly decreased
serum insulin level compared to the control group ([4]; 50 and 100 mg/kg Sequoyitol groups, p.o. 18 days): significantly increased
body weight of diabetes mice compared to the control group ([4]; 50 and 100 mg/kg Sequoyitol groups, p.o., since the 7th day): significantly increased
serum insulin level compared to the control group ([4]; Sequoyitol 25 mg/kg p.o. 18 days): increased
body weight of diabetes mice compared to the control group ([4]; Sequoyitol 25 mg/kg p.o., since the 11th day): increased
blood-sugar level decreased compared to the control group ([4]; Sequoyitol 50 mg/kg p.o., 12th day): 121.4 mg/dL
content of cholesterol in serum compared to the control group [4, 8]: significantly decreased
content of malonaldehyde in liver tissue compared to the control group [4, 8]: highly significantly decreased
content of triglyceride in serum compared to the control group [4, 8]: highly significantly decreased
hyalinization of interstitial small vessels (histopathologic examination) [4, 8]: alleviated
serum insulin level increased compared to the control group [4, 8]: 6.53 μlU/ml
activity of hepatocuprein in serum compared to the control group [4, 9]: highly significantly increased
inflammatory cell infiltration (histopathologic examination) [4, 9]: inhibited
number of pancreatic islands and number of cells in pancreatic islands (histopathologic examination) compared to the model group [4, 9]: increased significantly

— patent publication US20060135624A1, “Natural compound useful for treating diabetes, its preparation and use” (JINGYU LIANG ET AL, priority 2002, published 2006)
